Results reported in patent US20240122847A1, “ORAL POLYPEPTIDE FORMULATIONS” (Bhami's Research Laboratory, Pvt. Ltd., priority 2022, published 2024).

Legend:
[1] = Pharmacokinetics of PTH (1-34) in SD rats, sugar truffle buccal/sublingual vs SC, plasma PTH (1-34) ELISA
Procedure: Pharmacokinetic analysis was conducted in female rats weighing 220-250 grams for 2 days. Rats in the oral treatment group was either fasted overnight or fed prior to the test sample administration. All the test animals in the treatment groups were administered with respective test formulation to the pre-designated animals. The animal was restrained and its head was held vertically, the jaws were pulled away, the tongue was gently lifted with a forceps followed by placement of a polypeptide formulation as described herein buccally/sublingually. After placing a polypeptide formulation as described herein, the snout was held together for about 1-2 mins to prevent the chewing of the polypeptide formulation. The time of dosage of each animal was noted. Blood samples were collected at aforementioned time points 0 min, 15 min, 30 min, 1 hour, 2 hours, 4 hours, 8 hours, 12 hours, 24 hours, and 48 hours into an EDTA-blood collection tubes for the separation of plasma to determine PTH (1-34) levels by ELISA. Plasma samples collected at different time points were analyzed by ELISA kit according to Creative Diagnostics protocol. This kit is based on sandwich enzyme-linked immuno-sorbent assay technology. An antibody, anti-PTH (1-34) was pre-coated onto a 96-well plate. Standards, test samples, and biotin-conjugated reagent were added to the wells and incubated. The HRP-conjugated reagent was then added, and the whole plate was incubated. Unbound conjugates were removed using wash buffer at each stage. TMB substrate was used to quantify the HRP enzymatic reaction. After TMB substrate was added, only wells that contain sufficient PTH (1-34) will produce a blue colored product, which then changes to yellow after adding the acidic stop solution. The intensity of the yellow color is proportional to the PTH (1-34) amount bound on the plate. The Optical Density (OD) was measured spectrophotometrically at 450 nm in a microplate reader, from which the concentration of PTH (1-34) can be calculated.
PTH (1-34) was analyzed in plasma using a specific enzyme linked immunosorbent assay (ELISA). Pharmacokinetic endpoints were determined using noncompartmental methods using PK Solutions software. AUC was approximated using the trapezoidal rule on the observed concentrations. C max for each PTH (1-34) dose was derived as the maximum of all valid concentrations, and t max was then determined as the corresponding time point to C max. The terminal elimination rate constant (λz) was estimated by log-linear regression on the terminal part of the concentration-time curve, and t ½ was then calculated as t ½=ln 2/λz.

[2] = Summary of bioavailability of the formulations of the Examples compared to SC or IV; details: plasma, other: buccal/sublingual
[3] = female, SD, rat, plasma, 0.49 mg
[4] = female, SD, rat, plasma, sc, 0.04 mg

## CC[C@H](C)[C@H](NC(=O)[C@H](CCC(=O)O)NC(=O)[C@H](CO)NC(=O)[C@@H](NC(=O)[C@@H](N)CO)C(C)C)C(=O)N[C@@H](CCC(N)=O)C(=O)N[C@@H](CC(C)C)C(=O)N[C@@H](CCSC)C(=O)N[C@@H](Cc1cnc[nH]1)C(=O)N[C@@H](CC(N)=O)C(=O)N[C@@H](CC(C)C)C(=O)NCC(=O)N[C@@H](CCCCN)C(=O)N[C@@H](Cc1cnc[nH]1)C(=O)N[C@@H](CC(C)C)C(=O)N[C@@H](CC(N)=O)C(=O)N[C@@H](CO)C(=O)N[C@@H](CCSC)C(=O)N[C@@H](CCC(=O)O)C(=O)N[C@@H](CCCN=C(N)N)C(=O)N[C@H](C(=O)N[C@@H](CCC(=O)O)C(=O)N[C@@H](Cc1c[nH]c2ccccc12)C(=O)N[C@@H](CC(C)C)C(=O)N[C@@H](CCCN=C(N)N)C(=O)N[C@@H](CCCCN)C(=O)N[C@@H](CCCCN)C(=O)N[C@@H](CC(C)C)C(=O)N[C@@H](CCC(N)=O)C(=O)N[C@@H](CC(=O)O)C(=O)N[C@H](C(=O)N[C@@H](Cc1cnc[nH]1)C(=O)N[C@@H](CC(N)=O)C(=O)N[C@@H](Cc1ccccc1)C(=O)O)C(C)C)C(C)C [PTH (1-34)]
[1]; [3]
  level at 5 min: 3510 pg/mL
  level at 0.5 h: 3070 pg/mL
  level at 1 h: 2870 pg/mL
  level at 2 h: 1630 pg/mL
  level at 4 h: 214 pg/mL
  level at 8 h: 33.7 pg/mL
  level at 24 h: 6.02 pg/mL
[1]; female, SD, rat, plasma, other: buccal/sublingual, 0.49 mg
  bioavailability: 7%
[1]; [4]
  MRT last: 2.02 h
  Tmax: 0.5 h
  half-life: 4.46 h
  level at 0 h: 0.002 pg/mL
  level at 5 min: 403 pg/mL
  level at 0.5 h: 3400 pg/mL
  level at 1 h: 3270 pg/mL
  level at 2 h: 2930 pg/mL
  level at 4 h: 167 pg/mL
  level at 8 h: 50.9 pg/mL
  level at 24 h: 6.2 pg/mL
[1]; female, SD, rat, plasma, sc, 0.04 mg, AUC 0-inf_obs, rats
  AUC(0-inf): 9.61 ng·h/mL
[1]; female, SD, rat, plasma, sc, 0.04 mg, AUC 0-inf_pred, rats
  AUC(0-inf): 9.61 ng·h/mL
[1]; female, SD, rat, plasma, sc, 0.04 mg, AUC 0-t, rats
  AUC 0-t: 9.57 ng·h/mL
[1]; female, SD, rat, plasma, sc, 0.04 mg, AUC t-inf_obs, rats
  AUC(t-inf): 0.0399 ng·h/mL
[1]; female, SD, rat, plasma, sc, 0.04 mg, AUC t-inf_pred, rats
  AUC(t-inf): 0.0375 ng·h/mL
[1]; female, SD, rat, plasma, sc, 0.04 mg, MRT 0-inf_obs, rats
  MRT inf: 2.13 h
[1]; female, SD, rat, plasma, sc, 0.04 mg, MRT 0-inf_pred, rats
  MRT inf: 2.13 h
[1]; rats, GII - Buccal/sublingual 0.49 mg, 0 min
  Mean PTH (1-34) levels: 0.000 pg/mL
[1]; rats, SC, 0.04 mg
  AUMC 0-inf_obs: 20516.940 pg/mL*h^2
  AUMC 0-inf_pred: 20442.395 pg/mL*h^2
  AUMC 0-t: 19300.931 pg/mL*h^2
  AUMC 0-t/0-inf_obs: 0.941
  AUMC 0-t/0-inf_pred: 0.944
  AUMC t-inf_obs: 1216.009 pg/mL*h^2
  AUMC t-inf_pred: 1141.464 pg/mL*h^2
  Clast_obs: 6.201 pg/mL
  Clast_pred: 5.821 pg/mL
  Cmax: 3401.092 pg/mL
  Lambda_z: 0.155 h⁻¹
  Tlag: 0.000 h
  Tlast: 24.000 h
[2]
  bioavailability: > 7%
